Experimental data reported in patent US8754101B2, “N-cyclobutyl-imidazopyridine-methylamine as TRPV1 antagonists” (Glaxo Group Limited, priority 2011, dated 2014).
Counter-ions that a name gives are not always drawn.

System: not listed separately
Test: Solubility in simulated lung fluid
Format: physicochemical
Details: Phosphate buffer, pH 6.9, 0.75 mM lecithin, 0.1% BSA, 37° C. over 4 hours
With `Fc1ccc(O[C@H]2C[C@H](NCc3cccn4ccnc34)C2)cc1C(F)(F)F.O=C(O)/C=C\C(=O)O` [Example 7B, trans-3-{[4-Fluoro-3-(trifluoromethyl)phenyl]oxy}-N-(imidazo[1,2-a]pyridin-8-ylmethyl)cyclobutanamine, maleate salt] the solubility at 4 h was 1780 µg/mL.

System: i.v. Capsaicin Induced Bronchoconstriction
Test: Inhibition of i.v. capsaicin induced bronchoconstriction in anesthetized guinea pigs
Format: in vivo
Details: Cavia porcellus, intra-tracheal dosing 1 hour before capsaicin 20 ug/kg i.v., estimated from dose response 0.005-5 mg/kg
Experimental: Male Hartley Guinea Pigs weighing between 400 and 700 g were anesthetized with ketamine/xylazine mixture (88/15 mg/kg, i.m.). Animals were placed on their back, a toe pinch was performed to ensure depth of anaesthesia and a section of skin and fur was dissected away from the neck. The trachea, jugular vein, and carotid artery were isolated and cannulated to allow for ventilation, drug delivery, and blood pressure monitoring. Compounds were delivered via intra-tracheal delivery (in 200 uL of 0.5% Tween 80) 1 hour before capsaicin challenge. Depth of anaesthesia was confirmed by toe pinch and the Guinea pigs were placed in the full body plethysmograph. The chamber was closed and the animal was paralyzed by administration of Gallamine (2 mg/kg i.v.). Animals were ventilated at ˜1.0 mL/110 g, 60-65 breaths per minute by a Harvard Apparatus rodent respirator. Blood pressure and heart rate were continuously monitored to assess the level of anaesthesia, with supplemental anaesthetic doses given as required to maintain the proper level of anaesthesia. […] The BioWindow Cardio Pulmonary Software version 1.02 (Modular Instruments, Inc.) recorded arterial pressure, pulmonary pressure and airflow. Air pressure delta (difference between maximum and minimum air pressure) was used as the primary readout of inhibition of the capsaicin induced bronchoconstriction. […]
In the case of `Cl.Fc1ccc(O[C@H]2C[C@H](NCc3cccn4ccnc34)C2)cc1C(F)(F)F` [Example 7A, trans-3-{[4-Fluoro-3-(trifluoromethyl)phenyl]oxy}-N-(imidazo[1,2-a]pyridin-8-ylmethyl)cyclobutanamine, hydrochloride salt], the ED50 is reported as 0.033 mg/kg.

Same assay, conditions: dose 30 ug/kg intra-tracheal, 1 hour before capsaicin 20 ug/kg i.v., n=3
For `OCc1ccc(CN[C@H]2C[C@H](Oc3cccc(Cl)c3Cl)C2)c2nccn12` [Example 13, {8-[({trans-3-[(2,3-Dichlorophenyl)oxy]cyclobutyl}amino)methyl]imidazo[1,2-a]pyridin-5-yl}methanol], the “inhibition of capsaicin induced bronchoconstriction” value was 61% (+/−16.6%).

Biological target: T1, TRPV1 receptor (Homo sapiens, UniProt Q8NER1)
T1 construct: expressed in transfected cells; host or cells: HEK-293 cells stably expressing mitochondrial targeted Aequorin, transduced with TRPV1 BacMam
T1 sequence (Q8NER1 whole entry): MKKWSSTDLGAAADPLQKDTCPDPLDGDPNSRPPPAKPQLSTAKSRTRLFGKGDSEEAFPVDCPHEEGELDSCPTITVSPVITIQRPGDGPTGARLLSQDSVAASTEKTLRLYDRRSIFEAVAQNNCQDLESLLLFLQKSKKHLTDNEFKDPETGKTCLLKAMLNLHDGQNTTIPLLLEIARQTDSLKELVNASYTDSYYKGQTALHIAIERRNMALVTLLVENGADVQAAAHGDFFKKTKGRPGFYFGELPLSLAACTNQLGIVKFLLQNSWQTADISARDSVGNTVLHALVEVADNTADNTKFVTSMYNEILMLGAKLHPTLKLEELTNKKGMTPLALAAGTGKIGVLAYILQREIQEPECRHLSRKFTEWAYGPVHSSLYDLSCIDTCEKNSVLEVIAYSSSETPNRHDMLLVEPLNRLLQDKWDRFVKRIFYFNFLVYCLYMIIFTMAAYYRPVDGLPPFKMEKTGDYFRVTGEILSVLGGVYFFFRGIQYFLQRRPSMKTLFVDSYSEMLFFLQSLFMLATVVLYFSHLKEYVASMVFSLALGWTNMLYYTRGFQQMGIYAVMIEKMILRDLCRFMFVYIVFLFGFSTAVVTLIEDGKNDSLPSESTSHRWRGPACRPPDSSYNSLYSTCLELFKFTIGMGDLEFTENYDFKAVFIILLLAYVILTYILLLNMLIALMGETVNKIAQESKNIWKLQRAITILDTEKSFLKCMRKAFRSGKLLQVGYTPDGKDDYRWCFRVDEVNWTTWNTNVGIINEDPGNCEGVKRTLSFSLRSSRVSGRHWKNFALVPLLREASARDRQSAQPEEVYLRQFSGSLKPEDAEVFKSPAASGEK
Test: Capsaicin assay for TRPV1 receptor antagonism (aequorin luminescence, HEK-293 cells expressing TRPV1)
Format: cell-based
Details: HEK-293 cells expressing TRPV1, pH 7.4, challenge with 4×EC50 capsaicin, 15 min preincubation; read-out: pIC50 in the Capsaicin assay (converted)
Experimental: Assays for the functional inhibition of TRPV1 Ion Channel by test compound using Capsaicin or Acid Stimulus challenge were performed.
Compounds were dissolved in DMSO to 1 mM. An 11 point 4 fold serial dilution was prepared and 0.5 ul dispensed into Greiner black clear bottom 384 well plates.
HEK-293 cells stably expressing mitochondrial targeted Aequorin were transfected with TRPV1 receptor bacmam at scale for cryopreservation in 1 ml vial aliquots. Cells can be stored at −140° C. for up to 18 months.
18-20 hours before assay, cells were rapidly thawed in a water bath at 37° C. and transferred to a 50 ml Falcon tube. Cells were resuspended in 9 mls of M1 ‘generic’ media (DMEM/F12 with 10% dialysed FBS-Invitrogen 041-95750V) for every 1 ml cells and then centrifuged for 5 min at 1000 rpm. The cell pellet was resuspended in ˜10 mls loading buffer (Tyrodes Base Buffer*+0.1% Pluronic Acid F68 solution+0.1% BSA) and the pH was adjusted to 7.4 for Capsaicin stimulus assay or 6.7 for Acid stimulus assay. Cell density was calculated using the Trypan Blue stain method and adjusted to 2.5×10 e6 cells/ml using loading buffer. Coelentrazine (DiscoverX Cat. No 0-0084L-500 uM stock made in 100% ethanol) was added to a final concentration of 5 uM and the falcon tube was covered in foil (to protect from light) and placed on a windmill rotator at room temperature for approximately 20 hours. *Base Buffer=Sigma kit T2145 was dissolved in deionised water, 20 mL HEPES solution (Sigma H0887) and 13.4 mL of NaHCO3 (Sigma S8761) and made up to 1 L.
After loading, a cell count was taken and cell density adjusted accordingly depending on assay stimulus.
For Capsaicin stimulus assay cells were diluted to 1.25×10 e5 cells/ml using dilution buffer (Tyrodes Base Buffer+0.1% Pluronic Acid F68 solution) at pH 7.4
To the compound plates, the following additions were made:
20 ul dilution buffer at pH 7.4 followed by 20 ul cells were added to the test compound plate and any agonist activity measured as luminescence AUC counts. The compound/cell mix was incubated for 15 minutes and then challenged with 20 ul of a 4×EC50 concentration of Capsaicin (calculated on the day of assay), with concomitant luminescence detection.
AUC data was exported from the reader and data analysis was performed using 4 parameter logistic model, with data normalised to nominal high and low controls within plate.
With `CC(C)(C)c1c(F)cc(O[C@H]2C[C@@H](NCc3cccn4ccnc34)C2)cc1F` [Example 12, cis-3-{[4-(1,1-Dimethylethyl)-3,5-difluorophenyl]oxy}-N-(imidazo[1,2-a]pyridin-8-ylmethyl)cyclobutanamine] the IC50 was 1.26 to 100 nM. With `Fc1ccc(O[C@H]2C[C@H](NCc3cccn4ccnc34)C2)cc1Cl` [Example 5, trans-3-[(3-Chloro-4-fluorophenyl)oxy]-N-(imidazo[1,2-a]pyridin-8-ylmethyl)cyclobutanamine, trifluoroacetate] the IC50 was 1.26 to 100 nM. With `CC(C)(C)c1c(F)cc(O[C@H]2C[C@H](NCc3cccn4ccnc34)C2)cc1F` [Example 11, trans-3-{[4-(1,1-Dimethylethyl)-3,5-difluorophenyl]oxy}-N-(imidazo[1,2-a]pyridin-8-ylmethyl)cyclobutanamine] the IC50 was 1.26 to 100 nM. Compound `OCc1ccc(CN[C@H]2C[C@H](Oc3ccc(F)c(C(F)(F)F)c3)C2)c2nccn12` [Example 14, (8-{[(trans-3-{[4-Fluoro-3-(trifluoromethyl)phenyl]oxy}cyclobutyl)amino]methyl}imidazo[1,2-a]pyridin-5-yl)methanol] has an IC50 of 1.26 to 100 nM. In the case of `OCc1ccc(CN[C@H]2C[C@H](Oc3cccc(Cl)c3Cl)C2)c2nccn12` [Example 13, {8-[({trans-3-[(2,3-Dichlorophenyl)oxy]cyclobutyl}amino)methyl]imidazo[1,2-a]pyridin-5-yl}methanol], the IC50 is reported as 1.26 to 100 nM. `FC(F)(F)c1cccc(O[C@H]2C[C@H](NCc3cccn4ccnc34)C2)c1Cl` [Example 4, trans-3-{[2-Chloro-3-(trifluoromethyl)phenyl]oxy}-N-(imidazo[1,2-a]pyridin-8-ylmethyl)cyclobutanamine] showed an IC50 of 1.26 to 100 nM. Compound `FC(F)(F)c1ccc(O[C@H]2C[C@H](NCc3cccn4ccnc34)C2)c(Cl)c1` [Example 8, trans-3-{[2-Chloro-4-(trifluoromethyl)phenyl]oxy}-N-(imidazo[1,2-a]pyridin-8-ylmethyl)cyclobutanamine] has an IC50 of 1.26 to 100 nM. Compound `FC(F)(F)c1cc(O[C@H]2C[C@H](NCc3cccn4ccnc34)C2)ccc1Cl` [Example 6, trans-3-{[4-Chloro-3-(trifluoromethyl)phenyl]oxy}-N-(imidazo[1,2-a]pyridin-8-ylmethyl)cyclobutanamine] has an IC50 of 1.26 to 100 nM. Compound `FC(F)(F)c1cccc(O[C@H]2C[C@H](NCc3cccn4ccnc34)C2)c1` [Example 1, trans-N-(Imidazo[1,2-a]pyridin-8-ylmethyl)-3-{[3-(trifluoromethyl)phenyl]oxy}cyclobutanamine] has an IC50 of 1.26 to 100 nM. `Clc1cccc(O[C@H]2C[C@H](NCc3cccn4ccnc34)C2)c1Cl` [Example 2, trans-3-[(2,3-Dichlorophenl)oxy]-N-(imidazo[1,2-a]pyridin-8-ylmethyl)cyclobutanamine] gave an IC50 of 1.26 to 100 nM. `Fc1ccc(O[C@H]2C[C@H](NCc3cccn4ccnc34)C2)cc1C(F)(F)F` [Example 7, trans-3-{[4-Fluoro-3-(trifluoromethyl)phenyl]oxy}-N-(imidazo[1,2-a]pyridin-8-ylmethyl)cyclobutanamine] showed an IC50 of 1.26 to 100 nM. `OCc1cnc2c(CN[C@H]3C[C@H](Oc4cccc(Cl)c4Cl)C3)cccn12` [Example 15, {8-[({trans-3-[(2,3-Dichlorophenyl)oxy]cyclobutyl}amino)methyl]imidazo[1,2-a]pyridin-3-yl}methanol] gave an IC50 of 1.26 to 100 nM. Compound `FC(F)(F)c1cc(Cl)ccc1O[C@H]1C[C@H](NCc2cccn3ccnc23)C1` [Example 9, trans-3-{[4-Chloro-2-(trifluoromethyl)phenyl]oxy}-N-(imidazo[1,2-a]pyridin-8-ylmethyl)cyclobutanamine] has an IC50 of 1.26 to 100 nM.
